Publication PMC8201479, “Trisubstituted Pyrrolinones as Small-Molecule Inhibitors Disrupting the Protein–RNA Interaction of LIN28 and Let-7” (ACS Medicinal Chemistry Letters, 2021)
Like-named read-outs stand apart in the source and are kept apart here.

Legend:
[1] = system: LIN28; parameters: method as in PMID 27548809; conditions: reported value; read-out: IC50 (ELISA); cited from earlier work
[2] = target: T1, LIN28–let-7 complex (Homo sapiens, UniProt Q9H9Z2); assay: Electrophoretic mobility shift assay (EMSA); format: binding; conditions: compound concentrations up to 75 µM
T1 construct: Purified LIN28A (residues 16–187) was incubated at a concentration of 200 nM; His-tag (cleaved yes); made in house; host or cells: Escherichia coli BL21(DE3)
T1 sequence (Q9H9Z2 16-187): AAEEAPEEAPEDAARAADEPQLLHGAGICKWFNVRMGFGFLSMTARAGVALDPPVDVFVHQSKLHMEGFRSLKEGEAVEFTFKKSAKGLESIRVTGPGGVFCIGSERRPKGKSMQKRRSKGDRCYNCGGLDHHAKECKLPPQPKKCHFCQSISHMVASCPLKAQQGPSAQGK
Experimental: (§1) was detected after incubation at room temperature using a TECAN Spark plate reader. Half maximal
inhibitory concentrations (IC50) were determined using GraphPad Prism 7.
Compound screening. High throughput screening was performed in low volume 384 well plates
(Corning 4514) with 30 µM compound, 40 nM LIN28A, and 2 nM preE-let-7f-1-FAM in FP assay
buffer. Compounds were transferred with an ECHO 520 liquid handler and protein and RNA were
added with a multidrop dispenser. Protein and RNA were added stepwise with a 30 min incubation
period in between. FP was detected after a final incubation of 15 min with an Envision plate reader
and fluorescence was measured with a Paradigm plate reader. A reaction without LIN28 served as a
negative control and one without compound was used as a positive control. The software Quattro
Workflow (Quattro Research GmbH) was used for the analysis of screening data.
Electrophoretic mobility shift assay. EMSA was used as a secondary assay to validate FP-assay hit
molecules. Purified LIN28A (residues 16–187) was incubated with compound and 5 U recombinant
ribonuclease inhibitor (Takara Bio) in EMSA reaction buffer (50 mM Tris (pH 7.5), 100 mM NaCl,
10 mM β-mercaptoethanol, 50 µM ZnCl2, 2 % DMSO, 0.01 % Tween 20, 12 % glycerol) for 2 hours
at room temperature. Subsequently, preE-let-7f-1-Cy3 (mus musculus) (GGGGUAGUGAUUUUAC
CCUGUUUAGGAGAU-Cy3, purchased from IDT) was added to a final concentration of 5 nM and
a reaction volume of 50 µL. The final concentration of LIN28A was 10 nM and compound
concentrations up to 75 µM were used. The reaction mixtures were incubated for a further 15 minutes
and 10 µL loading dye (40 % glycerol, 1.5x TAE) was added. 10 µL of each reaction was separated
in an 8 % polyacrylamide TAE gel at 4 °C and 220 V for 1 h using 0.25x TAE as running buffer. Cy3
fluorescence was detected with a ChemiDoc M P (Bio-Rad) and 2 minutes of exposure time.
Thermal shift assay. Thermal stability of the cold shock domain construct LIN28 A (residues 16–
126) with and without compound was monitored using a NanoTemper Prometheus NT.48 nano -

[3] = target: T2, LIN28–let-7 interaction (Homo sapiens, UniProt Q9H9Z2); assay: Fluorescence polarization (FP) assay, LIN28A (residues 16–187) and FAM-labeled preE-let-7f-1; format: binding
T2 construct: Purified LIN28A (residues 16–187) was incubated at a concentration of 200 nM; His-tag (cleaved yes); made in house; host or cells: Escherichia coli BL21(DE3)
T2 sequence (Q9H9Z2 16-187): T1 sequence (Q9H9Z2 16-187)
Experimental: Protein expression and purification.
19 vector and overexpressed in Escherichia coli BL21(DE3). The culture was incubated at 37 °C until
the absorbance at 600 nm (OD600) reached 0.5–0.7. IPTG was added to a final concentration of
300 µM, and overnight induction was performed at 18 °C. Cells were harvested by centrifugation.
The bacterial pellet was resuspended in lysis buffer (50 mM NaH2PO4, pH 7.5, 300 mM NaCl,
0.1 mM PMSF) and lysed using a Microfluidizer (Microfluidics) . A fresh portion of 0.1 mM PMSF
and Triton X-100 (1% final concentration) were added. The lysate was cleared by ultra centrifugation
at 30000 xg and 4 °C for 1 h. The protein purification was performed using immobilized nickel
300 mM NaCl and 5 % glycerol. Gradient elution was performed with a maximum of 0.5 M imidazole.
Subsequently, the affinity tag was cleaved using His6 -TEV-protease and the protease and unspecific
binders were eliminated by a second nickel affinity chromatography. After protein concentration
LIN28A containing fractions were concentrated and applied to a High Load Superdex 75 pg 16/600
column (GE Healthcare) with gel-filtration buffer (30 mM NaH2PO4, pH 7.5, 50 mM NaCl, 5%
glycerol, 2 mM β-ME). The purified protein was concentrated and stored at -80 °C until further
Fluorescence polarization. The fluorescence polarization assay was performed in black low volume
IC50 measurements were performed with three technical
minutes with compound concentrations ranging from 0.3 nM to 100 µM in FP assay buffer (20 mM
Tris, pH 7, 100 mM NaCl, 5 mM MgCl2, 2 mM glutathione (reduced), 0.1 % NP-40). Subsequently,
FAM-labeled preE-let-7f-1 (mus musculus) ([…]-
FAM, synthesized by IDT) was added to a final concentration of 2 nM. Fluorescence polarization
as §1
inhibitory concentrations (IC50) were determined using GraphPad Prism 7. […]

[4] = target: T2, LIN28–let-7 interaction; assay: as above; format: binding; conditions: Table 1; quadruplicate; starting from 30 μM, eight concentrations; extrapolated based on the observed IC50 curves; read-out: IC50, LIN28–let-7 inhibitory activity
[5] = system: LIN28; parameters: method as in PMID 27668966; conditions: reported value; cited from earlier work
[6] = target: T3, LIN28A (16-187), untagged (human, UniProt Q9H9Z2 16-187); assay: competition (fluorescence polarization); competes with 2 nM FAM-preE-let-7f-1; FP: 20 mM Tris pH 7, 100 mM NaCl, 5 mM MgCl2, 2 mM GSH, 0.1% NP-40 (200 nM LIN28A, 2 nM RNA in IC50 assays); EMSA: 50 mM Tris pH 7.5, 100 mM NaCl, 10 mM beta-ME, 50 uM ZnCl2, 2% DMSO, 0.01% Tween 20, 12% glycerol, 2 h, room temperature; conditions: protein: recombinant; tags: none (His-tag cleaved by TEV); stem loop
T3 sequence: T1 sequence (Q9H9Z2 16-187)

Q: With `CC(=O)N(C)c1cccc(-c2ccc3nnc(C)n3n2)c1` [compound 1632] as the molecule, how does the IC50 [1] read?
A: 8 µM

Q: What does the source list for `O=C(O)c1cccc(N2C(=O)C(O)=C(C(=O)c3ccc(Br)cc3)C2c2ccc(-c3nccs3)cc2)c1` (stereo not shown) [C903]?
A: inhibition of the LIN28–let-7 complex in EMSA [2]: did not show activity; activity in the FP assay [3]: FP-inactive; IC50 [4]: > 100 µM

Q: For `CC1(C)Oc2cc(N3CCN(C(=O)OCc4ccccc4)CC3)c([N+](=O)[O-])cc2-c2c1cnn2-c1ccc(C(=O)O)cc1` [SB1301, reference compound], which IC50 ([3]; text and figures, C-labels = library sample, PH-labels = in-house resynthesized, read-out: IC50 in the FP assay) is on record?
A: 27 µM

Q: And the IC50 [5]?
A: 4 µM

B1: preE-let-7f-1, unlabeled (structured_RNA)
RNA: GGGGUAGUGAUUUUACCCUGUUUAGGAGAU
Q: For B1, which IC50 [6] is on record?
A: 0.055 µM
